Experimental data taken from US9382228B2 (priority 2013, dated 2016).

How the values were obtained:
[1] = molecular target: unphosphorylated PDGFRβ kinase (uPDGFRβ, Seq. ID No. 3) (Homo sapiens, UniProt P09619); assay: biochemical
[2] = test system: phospho-FMS in THP-1 cells; assay: cells; conditions: Homo sapiens, THP-1, read-out: pFMS inhibition in THP-1 cells
Procedure: In a separate 96 well black clear bottom plate, one hundred and fifty thousand THP-1 cells were added per well in 100 μL in assay medium. Fifty microliters of diluted compound was then added to the cells. […] Lysates were prepared and used to perform the phospho-FMS ELISA as described by the manufacturer (catalog #DYC3268, R & D Systems, Minneapolis, Minn.). GraphPad Prism was used to calculate IC50 values obtained from data generated from the ELISA assay.

osteoclast precursors = assay: cells; assay type: cell-based; conditions: read-out: Osteoclast assay
[3] = molecular target: unphosphorylated c-KIT kinase (uKIT, Seq. ID no. 2) (Homo sapiens, UniProt P10721); assay: biochemical
unphosphorylated c-KIT kinase (uKIT, Seq. ID no. 2), sequence (P10721 with tags, fused parts or gaps): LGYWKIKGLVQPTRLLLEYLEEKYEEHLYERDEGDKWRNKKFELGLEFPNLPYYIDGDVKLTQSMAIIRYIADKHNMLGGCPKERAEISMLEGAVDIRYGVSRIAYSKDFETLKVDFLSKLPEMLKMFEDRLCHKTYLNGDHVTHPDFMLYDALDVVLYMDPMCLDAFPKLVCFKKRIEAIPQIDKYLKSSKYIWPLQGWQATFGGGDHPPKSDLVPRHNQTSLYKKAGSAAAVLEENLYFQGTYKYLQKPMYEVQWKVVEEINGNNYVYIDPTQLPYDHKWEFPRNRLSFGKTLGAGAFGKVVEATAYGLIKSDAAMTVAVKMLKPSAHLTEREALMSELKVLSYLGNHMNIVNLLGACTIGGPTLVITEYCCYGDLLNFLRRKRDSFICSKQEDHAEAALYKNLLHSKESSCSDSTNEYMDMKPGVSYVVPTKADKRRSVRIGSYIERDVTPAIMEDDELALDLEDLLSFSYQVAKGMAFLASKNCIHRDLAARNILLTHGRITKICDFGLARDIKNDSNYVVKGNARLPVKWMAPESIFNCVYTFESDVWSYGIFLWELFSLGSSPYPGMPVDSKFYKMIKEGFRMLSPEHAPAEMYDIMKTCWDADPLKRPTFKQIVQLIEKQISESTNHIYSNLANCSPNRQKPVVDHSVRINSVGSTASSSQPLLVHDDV
Procedure: uKit kinase (Seq. ID No. 2) Assay
In this assay, the oxidation of NADH (thus the decrease at A340 nm) was continuously monitored spectrophometrically. […] The inhibition reaction was started by mixing serial diluted test compound with the above reaction mixture. The absorption at 340 nm was monitored continuously for 4 hours at 30° C. on Synergy 2 plate reader (BioTech).

M-NFS-60 cells = assay: cells; conditions: 67 h, read-out: M-NFS-60 cell proliferation
Procedure: M-NFS-6 Cell Proliferation Assay
A serial dilution of test compound was dispensed into a 384-well black clear bottom plate (Corning, Corning, N.Y.). Two thousand five hundred cells were added per well in 50 μL complete growth medium. […] IC50 values were calculated from a series of percent inhibition values determined at a range of inhibitor concentrations using software routines as implemented in the GraphPad Prism software package.

[4] = molecular target: T1, unphosphorylated c-FMS kinase (uFMS, Seq. ID no. 1) (Homo sapiens, UniProt P07333); assay: biochemical
T1 sequence (P07333 538-972): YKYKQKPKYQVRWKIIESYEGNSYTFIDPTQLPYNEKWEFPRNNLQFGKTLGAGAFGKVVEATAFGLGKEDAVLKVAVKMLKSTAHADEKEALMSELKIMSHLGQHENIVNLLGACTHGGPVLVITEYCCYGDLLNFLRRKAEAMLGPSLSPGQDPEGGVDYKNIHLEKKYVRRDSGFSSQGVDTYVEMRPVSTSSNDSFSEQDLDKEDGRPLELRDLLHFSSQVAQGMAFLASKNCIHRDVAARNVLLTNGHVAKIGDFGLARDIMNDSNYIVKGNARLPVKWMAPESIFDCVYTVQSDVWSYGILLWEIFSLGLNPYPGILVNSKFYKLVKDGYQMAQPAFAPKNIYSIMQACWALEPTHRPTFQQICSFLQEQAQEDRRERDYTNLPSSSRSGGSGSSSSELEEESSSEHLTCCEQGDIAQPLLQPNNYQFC
Procedure: In this assay, the oxidation of NADH (thus the decrease at A340 nm) was continuously monitored spectrophometrically. The reaction mixture (100 μL) contained FMS (purchased from Millipore) (10 nM), polyE4Y (1 mg/mL), MgCl2 (10 mM), pyruvate kinase (4 units), lactate dehydrogenase (0.7 units), phosphoenol pyruvate (1 mM), NADH (0.28 mM) and ATP (500 μM) in 90 mM Tris buffer containing 0.2% octyl-glucoside and 1% DMSO, pH 7.5. The inhibition reaction was started by mixing serial diluted test compound with the above reaction mixture. The absorption at 340 nm was monitored continuously for 4 hours at 30° C. on Synergy 2 plate reader. The reaction rate was calculated using the 3 to 4 h time frame. Percent inhibition was obtained by comparison of reaction rate with that of a control (i.e. in the absence of test compound). IC50 values were calculated from a series of percent inhibition values determined at a range of inhibitor concentrations using software routines as implemented in the GraphPad Prism software package.

[5] = uPDGFRb, enzymatic assay, ATP 500 μM
[6] = uKIT, enzymatic assay, ATP 2000 μM
[7] = uFMS, enzymatic assay, ATP 500 μM

unphosphorylated PDGFRβ kinase (uPDGFRβ, Seq. ID No. 3), sequence (P09619 557-1106): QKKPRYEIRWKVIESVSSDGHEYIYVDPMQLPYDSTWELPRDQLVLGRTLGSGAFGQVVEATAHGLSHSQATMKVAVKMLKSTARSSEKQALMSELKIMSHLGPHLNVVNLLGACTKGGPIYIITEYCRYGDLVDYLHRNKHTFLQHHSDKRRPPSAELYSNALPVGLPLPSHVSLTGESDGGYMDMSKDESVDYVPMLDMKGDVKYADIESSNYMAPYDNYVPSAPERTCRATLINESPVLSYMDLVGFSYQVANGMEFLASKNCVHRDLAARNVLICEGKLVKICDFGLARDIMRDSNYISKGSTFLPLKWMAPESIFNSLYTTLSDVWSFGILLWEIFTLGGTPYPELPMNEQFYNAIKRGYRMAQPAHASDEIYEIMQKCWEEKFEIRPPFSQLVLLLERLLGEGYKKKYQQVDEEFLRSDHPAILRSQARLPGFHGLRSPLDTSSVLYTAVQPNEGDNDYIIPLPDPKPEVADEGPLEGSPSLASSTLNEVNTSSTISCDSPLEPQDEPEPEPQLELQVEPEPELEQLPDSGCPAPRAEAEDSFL

Row | SMILES | IC50 [1, 5] [nM] | IC50 [2] [nM] | IC50 (osteoclast precursors) [nM] | IC50 [3, 6] [nM] | IC50 [4, 7] [nM] | IC50 ([1]; IC50 (nM) uPDGFRβ, Table 3) [nM] | IC50 ([3]; IC50 (nM) uKIT, Table 3) [nM] | IC50 ([4]; IC50 (nM) uFMS, Table 3) [nM] | IC50 (M-NFS-60 cells) [nM]
1 | CN1CCN(CC(=O)NC(=O)Nc2ccc(Oc3ccnc(-c4cnn(C)c4)c3)cn2)CC1 [Example 49, N-((5-((2-(1-methyl-1H-pyrazol-4-yl)pyridin-4-yl)oxy)pyridin-2-yl)carbamoyl)-2-(4-methylpiperazin-1-yl)acetamide] | > 1000 | 100 to 1000 | 100 to 1000 | > 1000 | 10 to 100 | – | – | – | > 1000
2 | Cc1nc(NC(=O)NC(=O)C(C)(C)C)ccc1Oc1ccnc(-c2ccc(C#N)nc2)c1 [Example 107, N-((5-((6′-cyano-[2,3′-bipyridin]-4-yl)oxy)-6-methylpyridin-2-yl)carbamoyl)pivalamide] | > 1000 | 10 to 100 | 10 to 100 | > 1000 | 10 to 100 | – | – | – | 100 to 1000
3 | Cc1ncc(-c2cc(Oc3ccc(NC(=O)NC(=O)C(C)(C)C)nc3)ccn2)s1 [Example 70, N-((5-((2-(2-methylthiazol-5-yl)pyridin-4-yl)oxy)pyridin-2-yl)carbamoyl)pivalamide] | 100 to 1000 | 10 to 100 | < 10 | > 1000 | < 10 | 922 | 2600 | 4 | 10 to 100
4 | Cc1ncc(-c2cc(Oc3ccc(NC(=O)NC(=O)C(C)(C)C)nc3C)ccn2)s1 [Example 86, N-((6-methyl-5-((2-(2-methylthiazol-5-yl)pyridin-4-yl)oxy)pyridin-2-yl)carbamoyl)pivalamide] | > 1000 | < 10 | 10 to 100 | > 1000 | < 10 | – | – | – | < 10
5 | Cn1cc(-c2cc(Oc3ccc(NC(=O)NC(=O)C4CC4)nc3)ccn2)cn1 [Example 51, N-((5-((2-(1-methyl-1H-pyrazol-4-yl)pyridin-4-yl)oxy)pyridin-2-yl)carbamoyl)cyclopropanecarboxamide] | > 1000 | < 10 | < 10 | 100 to 1000 | < 10 | – | – | – | 10 to 100
6 | Cn1cc(-c2cc(Oc3ccc(NC(=O)NC(=O)C4(C(F)(F)F)CC4)nc3)ccn2)cn1 [Example 33, N-((5-((2-(1-methyl-1H-pyrazol-4-yl)pyridin-4-yl)oxy)pyridin-2-yl)carbamoyl)-1-(trifluoromethyl)cyclopropanecarboxamide] | 10 to 100 | 10 to 100 | < 10 | 100 to 1000 | < 10 | – | – | – | 10 to 100
7 | COC(C)(C)C(=O)NC(=O)Nc1ccc(Oc2ccnc(-c3cnc(C)o3)c2)cn1 [Example 159, 2-methoxy-2-methyl-N-((5-((2-(2-methyloxazol-5-yl)pyridin-4-yl)oxy)pyridin-2-yl)carbamoyl)propanamide] | > 1000 | < 10 | 10 to 100 | > 1000 | 10 to 100 | – | – | – | 10 to 100
8 | Cc1cc(-c2cc(Oc3ccc(NC(=O)NC(=O)C(C)(C)C)nc3C)ccn2)ccn1 [Example 56, N-((6-methyl-5-((2′-methyl-[2,4′-bipyridin]-4-yl)oxy)pyridin-2-yl)carbamoyl)pivalamide] | > 1000 | < 10 | 10 to 100 | > 1000 | – | 2800 | 3100 | – | –
9 | Cn1cc(-c2cc(Oc3ccc(NC(=O)NC(=O)C4(C)CC4)nc3)ccn2)cn1 [Example 52, 1-methyl-N-((5-((2-(1-methyl-1H-pyrazol-4-yl)pyridin-4-yl)oxy)pyridin-2-yl)carbamoyl)cyclopropanecarboxamide] | > 1000 | < 10 | < 10 | 100 to 1000 | – | – | – | – | –
10 | Cc1cc(-c2cc(Oc3ccc(NC(=O)NC(=O)C(C)(C)C)nc3C)ccn2)on1 [Example 76, N-((6-methyl-5-((2-(3-methylisoxazol-5-yl)pyridin-4-yl)oxy)pyridin-2-yl)carbamoyl)pivalamide] | > 1000 | < 10 | 10 to 100 | > 1000 | – | – | – | – | –

More lines, main results first:

Row | IC50 [1, 5] [nM] | IC50 [2] [nM] | IC50 (osteoclast precursors) [nM] | IC50 [3, 6] [nM] | IC50 [4, 7] [nM] | IC50 ([1]; IC50 (nM) uPDGFRβ, Table 3) [nM] | IC50 ([3]; IC50 (nM) uKIT, Table 3) [nM] | IC50 ([4]; IC50 (nM) uFMS, Table 3) [nM] | SMILES | IC50 (M-NFS-60 cells) [nM]
11 | < 10 | < 10 | < 10 | < 10 | < 10 | – | – | – | Cn1cc(-c2cc(Oc3ccc(NC(=O)NC(=O)CCC4(C(F)(F)F)CC4)nc3)ccn2)cn1 [Example 3, N-((5-((2-(1-methyl-1H-pyrazol-4-yl)pyridin-4-yl)oxy)pyridin-2-yl)carbamoyl)-3-(1-(trifluoromethyl)cyclopropyl)propanamide] | < 10
12 | – | < 10 | 10 to 100 | < 10 | < 10 | – | – | – | Cn1cc(-c2cc(Oc3ccc(NC(=O)NC(=O)CC(C)(C)C(F)(F)F)nc3)ccn2)cn1 [Example 48, 4,4,4-trifluoro-3,3-dimethyl-N-((5-((2-(1-methyl-1H-pyrazol-4-yl)pyridin-4-yl)oxy)pyridin-2-yl)carbamoyl)butanamide] | 10 to 100
13 | > 1000 | 10 to 100 | 10 to 100 | > 1000 | < 10 | – | – | – | CCOC(C)(C)C(=O)NC(=O)Nc1ccc(Oc2ccnc(-c3cnc(C)s3)c2)cn1 [Example 124, 2-ethoxy-2-methyl-N-((5-((2-(2-methylthiazol-5-yl)pyridin-4-yl)oxy)pyridin-2-yl)carbamoyl)propanamide] | 10 to 100
14 | 100 to 1000 | 10 to 100 | < 10 | 100 to 1000 | < 10 | – | – | – | Cc1nc(NC(=O)NC(=O)C2(C(F)(F)F)CC2)ccc1Oc1ccnc(-c2cnn(C)c2)c1 [Example 34, N-((6-methyl-5-((2-(1-methyl-1H-pyrazol-4-yl)pyridin-4-yl)oxy)pyridin-2-yl)carbamoyl)-1-(trifluoromethyl)cyclopropanecarboxamide] | 10 to 100
15 | 100 to 1000 | 10 to 100 | < 10 | 10 to 100 | < 10 | – | – | – | Cc1nc(NC(=O)NC(=O)C2CCC(F)(F)CC2)ccc1Oc1ccnc(-c2cnn(C)c2)c1 [Example 12, 4,4-difluoro-N-((6-methyl-5-((2-(1-methyl-1H-pyrazol-4-yl)pyridin-4-yl)oxy)pyridin-2-yl)carbamoyl)cyclohexanecarboxamide] | < 10
16 | > 1000 | < 10 | < 10 | > 1000 | < 10 | – | – | – | Cn1cnc(-c2cc(Oc3ccc(NC(=O)NC(=O)C(C)(C)C)nc3)ccn2)c1 [Example 104, N-((5-((2-(1-methyl-1H-imidazol-4-yl)pyridin-4-yl)oxy)pyridin-2-yl)carbamoyl)pivalamide] | < 10
17 | 100 to 1000 | 10 to 100 | 10 to 100 | 100 to 1000 | < 10 | – | – | – | Cn1cc(-c2cc(Oc3ccc(NC(=O)NC(=O)C4(C)CCOCC4)nc3)ccn2)cn1 [Example 175, 4-methyl-N-((5-((2-(1-methyl-1H-pyrazol-4-yl)pyridin-4-yl)oxy)pyridin-2-yl)carbamoyl)tetrahydro-2H-pyran-4-carboxamide] | 10 to 100
18 | 10 to 100 | < 10 | < 10 | – | < 10 | – | – | – | Cn1cc(-c2cc(Oc3ccc(NC(=O)NC(=O)[C@H]4C[C@](C)(F)C4)nc3)ccn2)cn1 [Example 1, trans-3-fluoro-3-methyl-N-((5-((2-(1-methyl-1H-pyrazol-4-yl)pyridin-4-yl)oxy)pyridin-2-yl)carbamoyl)cyclobutanecarboxamide] | < 10
